This passage reports IC50 results from patent publication US9309224B2 (Deciphera Pharmaceuticals, LLC, priority 2013, dated 2016).

The target in test [1] is T1, unphosphorylated c-KIT kinase (uKIT, Seq. ID no. 2) (Homo sapiens, UniProt P10721).
T1 construct: uKit with N-terminal GST fusion used for
Description: uKit kinase assay (pyruvate kinase/lactate dehydrogenase coupled). In kind it is biochemical. The note with it: ATP 2000 μM.
Description: In this assay, the oxidation of NADH (thus the decrease at A340 nm) was continuously monitored spectrophometrically. […] The inhibition reaction was started by mixing serial diluted test compound with the above reaction mixture. The absorption at 340 nm was monitored continuously for 4 hours at 30° C. on Synergy 2 plate reader (BioTech).

Test [2] addresses T2, unphosphorylated PDGFRβ kinase (uPDGFRβ, Seq. ID No. 3) (Homo sapiens, UniProt P09619).
T2 construct: purchased DeCode
Description: Unphosphorylated PDGFRβ kinase assay (pyruvate kinase/lactate dehydrogenase coupled). In kind it is biochemical. The settings on record: ATP 500 μM. From the text:
Unphosyhorylated PDGFRβ (uPDGFRβkinase (Seq. ID No. 3) assay

The subject of another test is osteoclast precursors. The test can be described thus: Osteoclast tartrate-resistant acid phosphatase assay. In kind it is cell-based. The note with it: Osteoclast; 7-14 days, RANKL and M-CSF. As to the method:
Diluted compound was transferred to a 384-well black clear bottom plate. Two-thousand five hundred osteoclast precursors (Lonza, Walkersville, Md.) were added per well in growth media containing Receptor Activator of Nuclear Factor Kappa-beta ligand (RANKL) and M-CSF (R&D Systems, Minneapolis, Minn.). Plates were incubated for 7-14 days at 37 degrees Celsius, 5% CO2, and 95% humidity to allow differentiation of osteoclast precursors. […] Tartrate-resistant acid phosphatase activity in the supernatant samples was determined using an acid phosphatase assay kit (Sigma, St. Louis, Mo.). Absorbance was measured at 550 nm using a plate reader. Data was analyzed using Prism software (Graphpad, San Diego, Calif.) to calculate IC50 values.

Test [3] concerns the target T3, phospho-FMS in THP-1 cells (Homo sapiens, UniProt P07333).
T3 construct: endogenous in cells; host or cells: THP-1 (ATCC TIB-202)
The test can be described thus: Phospho-FMS ELISA assay in THP-1 cells. Type of test: cell-based. The note with it: 4 hours compound, M-CSF stimulated; read-out: pFMS inhibition in THP-1 cells. (In general: An ELISA detects its analyte on a solid surface through an enzyme-linked reagent.)

Test [4] concerns the target T4, unphosphorylated c-FMS kinase (uFMS, Seq. ID no. 1) (Homo sapiens, UniProt P07333).
T4 construct: purchased Millipore
T4 sequence (P07333 538-972): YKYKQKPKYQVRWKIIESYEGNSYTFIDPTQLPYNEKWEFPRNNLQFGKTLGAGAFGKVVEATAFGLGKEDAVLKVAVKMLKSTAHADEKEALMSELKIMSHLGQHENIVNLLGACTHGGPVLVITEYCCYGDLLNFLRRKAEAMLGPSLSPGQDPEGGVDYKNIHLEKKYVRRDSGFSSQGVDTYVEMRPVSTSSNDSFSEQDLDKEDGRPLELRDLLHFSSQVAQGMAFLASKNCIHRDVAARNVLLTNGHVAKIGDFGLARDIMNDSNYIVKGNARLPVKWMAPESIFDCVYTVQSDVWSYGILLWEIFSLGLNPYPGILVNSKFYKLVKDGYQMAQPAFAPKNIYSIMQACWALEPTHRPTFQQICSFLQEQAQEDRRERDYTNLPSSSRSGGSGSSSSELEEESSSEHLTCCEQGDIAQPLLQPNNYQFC
Description: uFMS kinase assay (pyruvate kinase/lactate dehydrogenase coupled). In kind it is biochemical. The note with it: ATP 500 μM.
Description: In this assay, the oxidation of NADH (thus the decrease at A340 nm) was continuously monitored spectrophometrically. The reaction mixture (100 μL) contained FMS (purchased from Millipore) (10 nM), polyE4Y (1 mg/mL), MgCl2 (10 mM), pyruvate kinase (4 units), lactate dehydrogenase (0.7 units), phosphoenol pyruvate (1 mM), NADH (0.28 mM) and ATP (500 μM) in 90 mM Tris buffer containing 0.2% octyl-glucoside and 1% DMSO, pH 7.5. The inhibition reaction was started by mixing serial diluted test compound with the above reaction mixture. The absorption at 340 nm was monitored continuously for 4 hours at 30° C. on Synergy 2 plate reader. The reaction rate was calculated using the 3 to 4 h time frame. Percent inhibition was obtained by comparison of reaction rate with that of a control (i.e. in the absence of test compound). IC50 values were calculated from a series of percent inhibition values determined at a range of inhibitor concentrations using software routines as implemented in the GraphPad Prism software package.

The test system of another test is M-NFS-60 cells. The test can be described thus: M-NFS-60 cell proliferation assay. Type of test: cell-based. The settings on record: 67 h incubation, resazurin.

T1 sequence (P10721 with tags, fused parts or gaps): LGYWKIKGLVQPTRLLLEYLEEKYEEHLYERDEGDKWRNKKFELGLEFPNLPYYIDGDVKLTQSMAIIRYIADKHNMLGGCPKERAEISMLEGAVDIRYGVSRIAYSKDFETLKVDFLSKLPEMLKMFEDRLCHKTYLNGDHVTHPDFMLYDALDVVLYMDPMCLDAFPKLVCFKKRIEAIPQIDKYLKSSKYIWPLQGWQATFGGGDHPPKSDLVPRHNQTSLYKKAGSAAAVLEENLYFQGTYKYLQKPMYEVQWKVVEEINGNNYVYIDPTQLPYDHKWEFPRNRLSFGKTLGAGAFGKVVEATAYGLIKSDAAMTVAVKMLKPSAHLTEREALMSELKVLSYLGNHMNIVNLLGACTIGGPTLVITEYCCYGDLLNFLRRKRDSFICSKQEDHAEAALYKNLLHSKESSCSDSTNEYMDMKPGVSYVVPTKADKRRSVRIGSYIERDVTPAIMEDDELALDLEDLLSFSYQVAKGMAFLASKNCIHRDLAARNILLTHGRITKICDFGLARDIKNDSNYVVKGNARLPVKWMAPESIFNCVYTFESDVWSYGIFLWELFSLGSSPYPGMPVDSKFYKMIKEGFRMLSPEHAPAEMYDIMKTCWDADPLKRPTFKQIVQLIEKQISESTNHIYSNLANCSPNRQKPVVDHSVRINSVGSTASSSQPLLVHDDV
T3 sequence (P07333 20-972): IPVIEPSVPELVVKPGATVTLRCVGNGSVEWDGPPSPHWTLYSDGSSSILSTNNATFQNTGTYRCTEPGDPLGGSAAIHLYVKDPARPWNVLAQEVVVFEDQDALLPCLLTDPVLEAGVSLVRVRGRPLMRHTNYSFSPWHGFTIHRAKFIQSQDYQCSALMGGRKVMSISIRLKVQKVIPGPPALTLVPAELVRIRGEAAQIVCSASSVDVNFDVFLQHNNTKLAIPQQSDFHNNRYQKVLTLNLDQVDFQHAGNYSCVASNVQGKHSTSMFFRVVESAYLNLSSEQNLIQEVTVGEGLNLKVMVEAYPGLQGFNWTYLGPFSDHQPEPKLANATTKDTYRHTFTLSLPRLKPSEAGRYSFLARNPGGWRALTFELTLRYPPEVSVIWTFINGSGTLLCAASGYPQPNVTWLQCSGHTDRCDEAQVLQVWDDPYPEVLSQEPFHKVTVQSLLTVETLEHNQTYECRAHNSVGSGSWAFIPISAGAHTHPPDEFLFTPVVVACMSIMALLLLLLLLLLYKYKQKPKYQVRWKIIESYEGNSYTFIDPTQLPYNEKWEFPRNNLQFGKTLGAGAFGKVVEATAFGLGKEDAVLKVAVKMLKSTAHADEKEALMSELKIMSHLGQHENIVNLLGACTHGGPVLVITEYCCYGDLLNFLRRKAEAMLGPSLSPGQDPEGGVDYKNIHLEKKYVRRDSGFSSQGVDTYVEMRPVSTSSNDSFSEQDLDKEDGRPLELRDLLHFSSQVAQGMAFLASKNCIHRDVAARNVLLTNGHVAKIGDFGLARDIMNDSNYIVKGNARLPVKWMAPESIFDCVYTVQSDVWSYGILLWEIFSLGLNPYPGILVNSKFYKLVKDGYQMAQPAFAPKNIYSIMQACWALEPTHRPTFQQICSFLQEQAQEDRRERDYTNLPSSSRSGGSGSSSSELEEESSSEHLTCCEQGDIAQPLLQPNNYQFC
T2 sequence (P09619 557-1105): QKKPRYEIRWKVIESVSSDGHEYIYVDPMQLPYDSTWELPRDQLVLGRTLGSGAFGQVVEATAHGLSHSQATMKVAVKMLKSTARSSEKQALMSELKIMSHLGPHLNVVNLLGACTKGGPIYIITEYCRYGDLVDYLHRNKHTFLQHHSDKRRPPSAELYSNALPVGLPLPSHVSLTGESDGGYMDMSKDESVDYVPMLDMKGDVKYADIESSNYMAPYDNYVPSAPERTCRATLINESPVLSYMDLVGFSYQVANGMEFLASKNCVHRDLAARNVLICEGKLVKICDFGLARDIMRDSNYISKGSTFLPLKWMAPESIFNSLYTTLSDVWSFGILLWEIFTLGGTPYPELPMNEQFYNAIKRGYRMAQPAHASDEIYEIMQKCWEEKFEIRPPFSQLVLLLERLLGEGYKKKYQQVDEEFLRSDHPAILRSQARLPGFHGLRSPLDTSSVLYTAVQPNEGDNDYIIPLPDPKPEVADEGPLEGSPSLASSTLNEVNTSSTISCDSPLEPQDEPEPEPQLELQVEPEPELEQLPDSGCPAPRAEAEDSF
Description for M-NFS-60 cells: M-NFS-60 Cell Proliferation Assay A serial dilution of test compound was dispensed into a 384-well black clear bottom plate (Corning, Corning, N.Y.). Two thousand five hundred cells were added per well in 50 μL complete growth medium. […] IC50 values were calculated from a series of percent inhibition values determined at a range of inhibitor concentrations using software routines as implemented in the GraphPad Prism software package.

For `Cc1nc(NC(=O)NC(=O)C(C)(C)C)ccc1Oc1ccnc(NC(=O)C(C)C)c1` [Example 13, N-((5-((2-isobutyramidopyridin-4-yl)oxy)-6-methylpyridin-2-yl)carbamoyl)pivalamide], the IC50 in test [1] is over 1000 nM; in test [2], 100 to 1000 nM; with osteoclast precursors, 10 to 100 nM; in test [3], under 10 nM; in test [4] it was under 10 nM; with M-NFS-60 cells it was under 10 nM.

In the case of `CC(C)C(=O)Nc1cc(Oc2ccc(NC(=O)NC(=O)C(C)(C)C)nc2)ccn1` [Example 17, N-((5-((2-isobutyramidopyridin-4-yl)oxy)pyridin-2-yl)carbamoyl)pivalamide], the IC50 is over 1000 nM in test [1]; 100 to 1000 nM in test [2]; 10 to 100 nM in the test with osteoclast precursors; 10 to 100 nM in test [3]; 10 to 100 nM in test [4]; 10 to 100 nM in the test on M-NFS-60 cells.

For `CC(=O)Nc1cc(Oc2ccc(NC(=O)NC(=O)C3(C)CC3)nc2)ccn1` [Example 19, N-((5-((2-acetamidopyridin-4-yl)oxy)pyridin-2-yl)carbamoyl)-1-methylcyclopropanecarboxamide], the IC50 was 100 to 1000 nM in test [1]; 100 to 1000 nM in test [2]; under 10 nM with osteoclast precursors; 10 to 100 nM in test [3]; 10 to 100 nM in test [4]; 10 to 100 nM in the test on M-NFS-60 cells.

Take `COC(C)(C)C(=O)NC(=O)Nc1ccc(Oc2ccnc(NC(C)=O)c2)c(C)n1` [Example 20, N-((5-((2-acetamidopyridin-4-yl)oxy)-6-methylpyridin-2-yl)carbamoyl)-2-methoxy-2-methylpropanamide]: the IC50 in test [1] was over 1000 nM; in test [2], over 1000 nM; in the test on osteoclast precursors it was 10 to 100 nM; in test [3], under 10 nM; in test [4] it was 10 to 100 nM; with M-NFS-60 cells it was under 10 nM.

Take `CCC(=O)Nc1cc(Oc2ccc(NC(=O)NC(=O)C(C)(C)C)nc2)ccn1` [Example 24, N-((5-((2-propionamidopyridin-4-yl)oxy)pyridin-2-yl)carbamoyl)pivalamide]: the IC50 in test [1] was 100 to 1000 nM; in test [2], 100 to 1000 nM; in the test with osteoclast precursors it was under 10 nM; in test [3] it was under 10 nM; in test [4], 10 to 100 nM; in the test on M-NFS-60 cells, 10 to 100 nM.

For `CC(=O)Nc1cc(Oc2ccc(NC(=O)NC(=O)C3(C(F)(F)F)CCC3)nc2)ccn1` [Example 25, N-((5-((2-acetamidopyridin-4-yl)oxy)pyridin-2-yl)carbamoyl)-1-(trifluoromethyl)cyclobutanecarboxamide], the IC50 was over 1000 nM in test [1]; 100 to 1000 nM in test [2]; under 10 nM in the test with osteoclast precursors; under 10 nM in test [3]; 10 to 100 nM in test [4]; 10 to 100 nM in the test on M-NFS-60 cells.

Consider `COC1(C(=O)NC(=O)Nc2ccc(Oc3ccnc(NC(C)=O)c3)cn2)CC1` [Example 27, N-((5-((2-acetamidopyridin-4-yl)oxy)pyridin-2-yl)carbamoyl)-1-methoxycyclopropanecarboxamide], for which the IC50 in test [1] was over 1000 nM; in test [2] it was 100 to 1000 nM; in the test with osteoclast precursors, under 10 nM; in test [3], 10 to 100 nM; in test [4], 10 to 100 nM; with M-NFS-60 cells, 10 to 100 nM.

As for `CC1(C(=O)NC(=O)Nc2ccc(Oc3ccnc(NC(=O)C4CC4)c3)cn2)CC1` [Example 30, N-((5-((2-(cyclopropanecarboxamido)pyridin-4-yl)oxy)pyridin-2-yl)carbamoyl)-1-methylcyclopropanecarboxamide], the IC50 in test [1] is 10 to 100 nM; in test [2], 100 to 1000 nM; with osteoclast precursors, under 10 nM; in test [3], under 10 nM; in test [4], under 10 nM; in the test with M-NFS-60 cells it was 10 to 100 nM.

As to `COC(C)(C)C(=O)NC(=O)Nc1ccc(Oc2ccnc(NC(=O)C3CC3)c2)cn1` [Example 31, N-(4-((6-(3-(2-methoxy-2-methylpropanoyl)ureido)pyridin-3-yl)oxy)pyridin-2-yl)cyclopropanecarboxamide], the IC50 in test [1] was 100 to 1000 nM; in test [2], 100 to 1000 nM; in the test on osteoclast precursors, under 10 nM; in test [3], under 10 nM; in test [4], under 10 nM; in the test with M-NFS-60 cells, 10 to 100 nM.

As to `CN1CCC(C(=O)Nc2cc(Oc3ccc(NC(=O)NC(=O)C4(C)CC4)nc3)ccn2)CC1` [Example 33, 1-methyl-N-(4-((6-(3-(1-methylcyclopropanecarbonyl)ureido)pyridin-3-yl)oxy)pyridin-2-yl)piperidine-4-carboxamide], the IC50 in test [1] was over 1000 nM; in test [2], 100 to 1000 nM; in the test on osteoclast precursors, 10 to 100 nM; in test [3], 10 to 100 nM; in test [4], 10 to 100 nM; with M-NFS-60 cells, 100 to 1000 nM.

Take `CCC(=O)Nc1cc(Oc2ccc(NC(=O)NC(=O)C3(C)CC3)nc2)ccn1` [Example 36, 1-methyl-N-((5-((2-propionamidopyridin-4-yl)oxy)pyridin-2-yl)carbamoyl)cyclopropanecarboxamide]: the IC50 in test [1] was 100 to 1000 nM; in test [2] it was 10 to 100 nM; in the test with osteoclast precursors it was under 10 nM; in test [3] it was 10 to 100 nM; in test [4] it was under 10 nM; with M-NFS-60 cells, 10 to 100 nM.

Take `CCC(=O)Nc1cc(Oc2ccc(NC(=O)NC(=O)C(C)(C)OC)nc2)ccn1` [Example 37, 2-methoxy-2-methyl-N-((5-((2-propionamidopyridin-4-yl)oxy)pyridin-2-yl)carbamoyl)propanamide]: the IC50 in test [1] was over 1000 nM; in test [2], 100 to 1000 nM; in the test on osteoclast precursors, 10 to 100 nM; in test [3] it was under 10 nM; in test [4], under 10 nM; with M-NFS-60 cells, 10 to 100 nM.

With `COC(C)(C)C(=O)NC(=O)Nc1cc(C)c(Oc2ccnc(NC(C)=O)c2)cn1` [Example 38, N-((5-((2-acetamidopyridin-4-yl)oxy)-4-methylpyridin-2-yl)carbamoyl)-2-methoxy-2-methylpropanamide], the IC50 was 100 to 1000 nM in test [1]; 10 to 100 nM in test [2]; 10 to 100 nM in the test on osteoclast precursors; under 10 nM in test [3]; under 10 nM in test [4]; under 10 nM with M-NFS-60 cells.

As for `COC1(C(=O)NC(=O)Nc2ccc(Oc3ccnc(NC(=O)C4CC4)c3)cn2)CC1` [Example 41, N-((5-((2-(cyclopropanecarboxamido)pyridin-4-yl)oxy)pyridin-2-yl)carbamoyl)-1-methoxycyclopropanecarboxamide], the IC50 in test [1] was 100 to 1000 nM; in test [2], 10 to 100 nM; in the test with osteoclast precursors, under 10 nM; in test [3], 10 to 100 nM; in test [4] it was under 10 nM; in the test on M-NFS-60 cells, 10 to 100 nM.

In the case of `CC(=O)Nc1cc(Oc2cnc(NC(=O)NC(=O)C(C)(C)C)cc2C)ccn1` [Example 42, N-((5-((2-acetamidopyridin-4-yl)oxy)-4-methylpyridin-2-yl)carbamoyl)pivalamide], the IC50 was 100 to 1000 nM in test [1]; 10 to 100 nM in test [2]; under 10 nM in the test on osteoclast precursors; under 10 nM in test [3]; under 10 nM in test [4]; under 10 nM with M-NFS-60 cells.

Consider `CC(C)(C)C(=O)NC(=O)Nc1ccc(Oc2ccnc(NC(=O)N3CCOCC3)c2)cn1` [Example 46, N-(4-((6-(3-pivaloylureido)pyridin-3-yl)oxy)pyridin-2-yl)morpholine-4-carboxamide], for which the IC50 in test [1] is 100 to 1000 nM; in test [2], 100 to 1000 nM; in the test with osteoclast precursors it was under 10 nM; in test [3], under 10 nM; in test [4], under 10 nM; with M-NFS-60 cells, under 10 nM.

As for `CN(C)[C@H]1CCN(C(=O)Nc2cc(Oc3ccc(NC(=O)NC(=O)C(C)(C)C)nc3)ccn2)C1` [Example 47, (S)-3-(dimethylamino)-N-(4-((6-(3-pivaloylureido)pyridin-3-yl)oxy)pyridin-2-yl)pyrrolidine-1-carboxamide], the IC50 was over 1000 nM in test [1]; 10 to 100 nM in test [2]; under 10 nM in the test with osteoclast precursors; under 10 nM in test [3]; under 10 nM in test [4]; under 10 nM in the test on M-NFS-60 cells.
